Source: patent US10968248B2, “Trinucleotide mRNA cap analogs” (c/o Arcturus Therapeutics, Inc., priority 2016, dated 2021)

Key:
[1] = target: T7 RNA polymerase (Escherichia phage T7, UniProt P00573); details: 2 hrs at 37 C, concluded from protein expression in mice
Procedure: For ARCA and ARC CAP1 mRNAs, in vitro transcription was performed using the standard protocol (see Table, below). All of components were mixed, and T7 RNA polymerase (E2040 from NEB) was added in the reaction mixture. The transcription reaction was incubated for 2 hrs at 37 C. After 2 hrs of reaction time, DNASEI (NEB) and buffer were added to the transcription reaction and incubated for 15 mins at 37 C. The crude of reaction mix was purified using RNA purification kit (Macherey-Nagel).

[2] = system: rabbit reticulocyte lysate system; details: mRNA transcribed with the cap analog; cited from earlier work
[3] = Protein expression in plasma (ELISA) after i.v. delivery of m^7G(5′)p3-RNA to mice; format: in vivo
[4] = in vitro transcription initiated with the cap analog; cited from earlier work

T7 RNA polymerase, sequence (P00573 whole entry): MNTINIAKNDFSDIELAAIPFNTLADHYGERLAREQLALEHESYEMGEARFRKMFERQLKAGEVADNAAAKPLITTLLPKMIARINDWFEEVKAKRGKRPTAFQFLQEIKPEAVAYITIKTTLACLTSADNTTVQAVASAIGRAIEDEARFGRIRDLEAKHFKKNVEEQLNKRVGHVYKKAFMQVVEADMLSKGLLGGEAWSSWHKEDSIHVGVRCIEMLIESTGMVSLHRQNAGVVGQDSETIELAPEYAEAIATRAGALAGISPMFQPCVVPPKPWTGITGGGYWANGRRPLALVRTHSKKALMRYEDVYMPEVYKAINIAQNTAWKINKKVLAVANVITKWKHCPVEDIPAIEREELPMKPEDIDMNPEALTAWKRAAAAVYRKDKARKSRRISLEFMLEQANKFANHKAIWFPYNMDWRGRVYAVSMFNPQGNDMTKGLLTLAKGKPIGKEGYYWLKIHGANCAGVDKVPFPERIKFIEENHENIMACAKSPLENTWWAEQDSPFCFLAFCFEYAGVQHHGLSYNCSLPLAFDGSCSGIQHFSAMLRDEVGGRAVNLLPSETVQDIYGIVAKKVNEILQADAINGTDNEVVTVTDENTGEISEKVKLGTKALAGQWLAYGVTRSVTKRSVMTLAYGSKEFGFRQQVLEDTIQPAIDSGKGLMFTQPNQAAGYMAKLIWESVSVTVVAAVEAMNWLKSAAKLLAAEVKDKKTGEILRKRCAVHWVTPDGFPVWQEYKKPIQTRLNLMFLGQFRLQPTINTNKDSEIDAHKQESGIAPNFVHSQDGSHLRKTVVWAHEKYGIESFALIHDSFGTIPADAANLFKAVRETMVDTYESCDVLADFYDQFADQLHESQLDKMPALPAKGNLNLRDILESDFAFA

Compound	efficiency of transcription [1]	translational efficiency (rank order of cap structures) [2]	efficiency of translation of capped RNA ([3]; compared with enzymatically (vaccinia) capped RNA)	amount of protein expression ([3]; m^7G(5′)p3-RNA 0.3 mg/kg i.v., male mice, plasma 6 hours post dose, ELISA, FIG. 16)	caps oriented in the reverse direction / reverse-orientation transcript [4]
CO[C@@H]1[C@H](OP(=O)(O)OC[C@H]2O[C@@H](n3cnc4c(=O)[nH]c(N)nc43)[C@H](O)[C@@H]2O)[C@@H](COP(=O)(O)OP(=O)(O)OP(=O)([O-])OC[C@H]2O[C@@H]([n+]3cn(C)c4c(=O)[nH]c(N)nc43)[C@H](O)[C@@H]2O)O[C@H]1n1cnc2c(N)ncnc21 [ARC CAP1, m^7G(5′)p3AmpG]	substantially improved compared to dinucleotide ARCA	greatest	just as efficient translated as enzymatically capped RNA	greater than ARCA	
CO[C@H]1[C@@H](O)[C@H](n2c[n+](C)c3c(=O)[nH]c(N)nc32)O[C@@H]1COP(=O)(O)OP(=O)(O)OP(=O)(O)OC[C@H]1O[C@@H](n2cnc3c(=O)[nH]c(N)nc32)[C@H](O)[C@@H]1O [ARCA, 3′-OMe-m^7G(5′)p3G]					without reversal
Cn1c[n+]([C@@H]2O[C@H](COP(=O)(O)OP(=O)([O-])OP(=O)(O)OC[C@H]3O[C@@H](n4cnc5c(=O)[nH]c(N)nc54)[C@H](O)[C@@H]3O)[C@@H](O)[C@H]2O)c2nc(N)[nH]c(=O)c21 [m^7G(5′)p3(5′)G]					one third to one half of the caps oriented in the reverse direction
